Consider three compounds from patent publication US20080318970A1, “Treatment of Infectious Diseases” (priority 2004, published 2008).

Data set [1] relates to non-resistant mouse pathogen isolate of Streptococcus pneumoniae. Particulars: Kristiansen et al. 1998; cited from earlier work.
In the next data set the test system is HIV-1 strain HTLV-IIIB. The experiment in a line: Inhibition of HIV-1 replication in MT4 cells (MTT assay). The format is cell-based. The settings on record: Human immunodeficiency virus 1, IIIB, 144 h; compound alone; MT4 cells, six days. How it is done: Each experiment was repeated in tripleduplicate. MIC values represent the mean values of two separate experiments.
The HIV-1 strain HTLV-IIIB were propagated in H9 cells at 37° C., 5% CO2 using RPMI 1640 with 10% heat-inactivated foetal calf serum (FCS) and antibiotics (growth medium). Culture supernatant was filtered ([…]), aliquotted, and stored at −80° C. until use. The HIV-1 strain was obtained from NIH AIDS Research and Reference Program.
(§1) Compounds were examined for possible antiviral activity against strain 111B of HIV-1 using MT4 cells as target cells. MT4 cells were incubated with virus (0.005 MOI) and growth medium containing the test dilutions of compound(s) for six days in parallel with virus-infected and uninfected control cultures without compound added. Expression of HIV in the cultures was indirectly quantified using the MTT assay as previously described. Compounds mediating less than 30% reduction of HIV expression were considered without biological activity. Compounds were tested in parallel for cytotoxic effect in uninfected MT4 cultures containing the test dilutions of compound as described above. Cultures for test of both antiviral activity and cytotoxic effect were set up in tripleduplicates, […] per culture in micro titre plates.
The 50% inhibitory concentration was determined by interpolation from the plots of percent inhibition versus concentration of compound.
EC50 is defined as the effective concentration that inhibits 50% of viral production, 50% of viral infectivity, or 50% of the virus-induced cytopathic effect.
On the technique in general: Tetrazolium dyes change colour on reduction, which living cells bring about.

Data set [2] in a line: Cytotoxic effect in uninfected MT4 cultures. The format is cell-based. The settings on record: human, uninfected MT4 cells; compound alone; uninfected MT4. As to the method: as §1
CC50 is defined as the inhibitory concentration that reduces cellular growth or viability of uninfected cells by 50%.

For data set [3], the system named is E. coli, LN 3164. The experiment in a line: MIC susceptibility test, microdilution broth method (NCCLS), chemosensitising compound alone. The format is cell-based. The settings on record: 37° C., 16 h. As to the method: Bacteria were sub-cultured on Mueller-Hinton agar plates and incubated over night at 37° C. Pre-warmed Mueller-Hinton broth was inoculated with colonies from the plate and incubated for approximately three hours to achieve a log phase culture. The log phase culture of bacteria was diluted with fresh pre-warmed medium and adjusted to a defined Optical Density (OD) at 600 nm in order to give a final assay concentration of 1×10^4 bacteria/ml medium.
Cell growth was tested using the MIC susceptibility tests by use of the microdilution broth method in accordance to the NCCLS Guidelines (NCCLS Guidelines, Methods for Dilution Antimicrobial Susceptibility Tests for Bacteria That Grow Aerobically; Approved Standard, Sixth Edition, Volume 23; Number 2). A 100% Mueller-Hinton broth and a bacterial concentration of 1×10^4/ml were used.
A log phase culture of bacteria was diluted with fresh pre-warmed medium and adjusted to a defined OD at 600 nm in order to give a final concentration of 1×10^4 bacteria/ml medium in each well. Each chemosensitising compound was added to the bacterial culture in the wells in two-fold dilutions in order to give final concentrations ranging from 8 to 500 μg/ml. Trays were incubated at 37° C. for 16 h. Minimal Inhibitory Concentration, (MIC) is defined as the lowest inhibitory concentration showing no visible growth according to the NCCLS Guidelines.
Background: In broth dilution the organism is exposed to a series of concentrations in liquid medium.

The subject of data set [4] is E. coli, LN 3164. The experiment in a line: Effect of chemosensitising compounds on DR (DR ratio) with ciprofloxacin, microtiter assay. The format is cell-based. The settings on record: MIC ciprofloxacin alone / MIC ciprofloxacin + chemosensitising compound at ¼ of its MIC; E. coli LN 3164. How it is done:
The effects of the chemosensitising compounds on DR were studied by the microtiter assay described above by exposing cells to 0-64 μg/ml anti-infective drug in the absence or presence of chemosensitising compound. Each experiment was repeated in tripleduplicate. MIC values represent the mean values of two separate experiments.
A log phase culture of bacteria was diluted with fresh pre-warmed medium and adjusted to a defined OD at 600 nm in order to give a final concentration of 1×10^4 bacteria/ml medium in each well. […] Anti-infective agent was added to the bacterial culture in the wells in two-fold dilutions in order to give final concentrations ranging from 0 to 64 μg/ml. Trays were incubated at 37° C. for 16 h. The DR ratio was defined as the ratio between the MIC value for anti-infective agent alone divided by the MIC for the anti-infective agent in the presence of the chemosensitising compound. This ratio represents the increase in apparent potency of the anti-infective agent caused by the chemosensitising compound, and may be expressed as
DR ratio=(MICanti-infective agent)/(MICanti-infective agent+chemosensitising compound)

The test system of the next data set is E. faecalis F84. The experiment in a line: Checkerboard combination study (FIC index). The settings on record: MDR isolate. Format: cell-based, Enterococcus faecalis. As to the method:
Enterococcus faecalis, F84. A multidrug resistant clinical isolate.
(§2) The synergistic effect was studied by checkerboard combination studies exposing cells to 0-64 μg/ml anti-infective agent in the absence or presence of trans-flupenthixol, cis-flupenthixol or trans-clopenthixol. Each experiment was repeated in tripleduplicate. MIC values represent the mean values of two separate experiments,
A log phase culture of bacteria was diluted with fresh pre-warmed medium and adjusted to a defined OD at 600 nm in order to give a final concentration of 1×10^4 bacteria/ml medium in each well. […] Anti-infective agent was added to the bacterial culture in the wells in two-fold dilutions in order to give final concentrations ranging from 0 to 64 μg/ml Trays were incubated at 37° C. for 16 h. Wells were assessed visually for growth. The Fractional Inhibitory Concentration (FIC) was calculated for each anti-infective agent alone and in combination with trans-flupenthixol, cis-flupenthixol or trans-clopenthixol. The following formulae were used to calculate the FIC index:
(§3) FIC=FICchemosensitising compound+FICanti-infective agent
(§4) FICchemosensitising compound=(MICchemosensitising compound+anti-infective agent)/(MICchemosensitising compound)
(§5) FICanti-infective agent=(MICanti-infective agent+chemosensitising compound/(MICanti-Infective agent)
(§6) Synergy was defined as a FIC index of <0.5.

Another data set has as its system E. faecalis F86. The experiment in a line: Checkerboard combination study (FIC index). The format is cell-based, Enterococcus faecalis. The settings on record: anti-infective agent Dicloxacillin; isolate susceptible (S). How it is done:
Enterococcus faecalis, F86. Susceptible clinical isolate. No development of resistance.
as §2
(§7) A log phase culture of bacteria was diluted with fresh pre-warmed medium and adjusted to a defined OD at 600 nm in order to give a final concentration of 1×10^4 bacteria/ml medium in each well. Each chemosensitising compound was added to the bacterial culture in the wells in two-fold dilutions in order to give final concentrations ranging from 0 to 8 μg/ml. Anti-infective agent was added to the bacterial culture in the wells in two-fold dilutions in order to give final concentrations ranging from 0 to 64 μg/ml Trays were incubated at 37° C. for 16 h. Wells were assessed visually for growth. The Fractional Inhibitory Concentration (FIC) was calculated for each anti-infective agent alone and in combination with trans-flupenthixol, cis-flupenthixol or trans-clopenthixol. The following formulae were used to calculate the FIC index:
as §3, §4, §5, §6

The subject of another data set is S. aureus E45. The experiment in a line: Checkerboard combination study (FIC index). Particulars: isolate resistant (R). The format is cell-based, Staphylococcus aureus. As to the method:
Staphylococcus aureus E45 MRSA. Clinical isolate. Resistant to methicillin. Susceptible to teicoplanin chloramphenicol, fosfomycin, netilmicin and vancomycin.
as §2, §7, §3, §4, §5, §6

Another data set relates to S. aureus O11. The experiment in a line: Checkerboard combination study (FIC index). The format is cell-based, Staphylococcus aureus. The settings on record: anti-infective agent Dicloxacillin; isolate susceptible (S). How it is done:
Staphylococcus aureus O11. Clinical isolate resistant to penicillin. Susceptible to methicillin, tetracycline, beta-lactams, fluoroquinolones, chloramphenicol and aminoglycosides.
as §2, §7, §3, §4, §5, §6

The subject of a further data set is E. coli LN 3164. The experiment in a line: Checkerboard combination study (FIC index). The format is cell-based. The settings on record: MDR isolate. How it is done:
E. coli, LN 3164. Acr AB-ToIC MDR in vitro-selected mutant. Resistant to tetracycline, beta-lactams, fluoroquinolones, chloramphenicol and aminoglycosides.
as §2, §7, §3, §4, §5, §6

For a further data set, the system named is E. coli 331ME. The experiment in a line: Checkerboard combination study (FIC index). Particulars: MDR isolate. The format is cell-based. As to the method: E. coli 331 ME. In vivo-selected multidrug resistant clinical isolates of E. coli. Strains were isolated from a patient with severe cystitis/urosepsis. Resistant to tetracycline, beta-lactams, fluoroquinolones, chloramphenicol and aminoglycosides.
as §2, §7, §3, §4, §5, §6

Another data set deals with P. aeruginosa 432b. The experiment in a line: Checkerboard combination study (FIC index). Particulars: isolate resistant (R). The format is cell-based. As to the method:
P. aeruginosa 432b. Clinical multidrug resistant isolate. Resistant to tetracycline, beta-lactams, fluoroquinolones, and aminoglycosides. Beta-lactamase producing, changes in Penicillin Binding Proteins and changes in Outer Membrane Proteins.
as §2, §7, §3, §4, §5, §6

For data set [5] the following is noted: clinical trial versus placebo, Johnstone et al.; cited from earlier work.
Setting [6] is: anti-infective agent Dicloxacillin.
[7] abbreviates: anti-infective agent Ciprofloxacin.
Setting [8] is: anti-infective agent Gentamicin.
Where [9] appears, read: anti-infective agent Piperacillin.

As a reminder, the MIC is the least concentration at which growth counts as inhibited. penicillin: the MIC in data set [1] is 0.02 µg/mL.
In general, EC50 refers to the concentration needed to bring the measured effect to its halfway point. By CC50 is commonly meant the concentration at which the toxic effect on the cells reaches its halfway point. `Cc1cn([C@H]2C[C@H](N=[N+]=[N-])[C@@H](CO)O2)c(=O)[nH]c1=O` [AZT, 3′-Azido-3′-deoxythymidine, reference compound] had a concentration giving a half-maximal response (EC50) with HIV-1 strain HTLV-IIIB of 50 nM. For the same compound, in data set [2], the cytotoxic concentration (CC50) at 6 days was greater than 3000 nM.
Turning to `OCCN1CCN(CC/C=C2/c3ccccc3Sc3ccc(C(F)(F)F)cc32)CC1` [cis-flupenthixol, reference compound], the MIC in the data set with E. coli, LN 3164 [3] was 32 µg/mL. Moreover, in the data set with E. coli, LN 3164 [4], the DR ratio is 32. Moreover, the FIC index amounted to 0.13 with E. faecalis F84 (setting [6]); 0.25 in the data set with E. faecalis F84 (anti-infective agent Vanomycin); 0.50 in the data set with E. faecalis F86; 0.25 with S. aureus E45 (setting [6]); 0.26 in the data set on S. aureus E45 (anti-infective agent Fucidic acid); 0.50 with S. aureus O11. The FIC index in the data set on E. coli LN 3164 (setting [7]) amounted to 0.25; in the data set with E. coli LN 3164 (setting [8]) it was 0.25; in the data set on E. coli LN 3164 (setting [9]) it was 0.25; with E. coli 331ME (setting [7]) it was 0.013; in the data set with E. coli 331ME (setting [8]), 0.06; in the data set with E. coli 331ME (setting [9]), 0.25. The FIC index with P. aeruginosa 432b (setting [7]) stood at 0.06; in the data set on P. aeruginosa 432b (setting [8]), 0.13; with P. aeruginosa 432b (setting [9]), 0.25. Also, in [5], the “anti-psychotic effect (in words)” value was “potent neuroleptic”.
